Assay results reported in patent US4459290A, “C-23-Modified derivatives of OMT, pharmaceutical compositions and method of use” (priority 1982, dated 1984).
Converted amounts (≈) assume the structure as drawn. Read-outs that look alike come from different tables or passages of the source.

What was measured:
[1] = test system: Staphylococcus aureus V41; test: MIC, standard agar-dilution assay (Table V); type: cell-based; details: Staphylococcus aureus, V41
Experimental: (§1) Especially noteworthy is the improved activity against gram-negative bacteria for several derivatives when compared to the activity of OMT. […] The MIC's in Tables V and VI were determined by standard agar-dilution assays. The MIC's in Table VII were obtained using a conventional broth-dilution microtiter test.

[2] = test system: Staphylococcus aureus X1.1; test: MIC, standard agar-dilution assay (Table V); type: cell-based; details: Staphylococcus aureus; S. aureus X1.1; agar dilution; read-out: MIC
Experimental: as §1

[3] = test system: Staphylococcus aureus X400; test: MIC, standard agar-dilution assay (Table V); type: cell-based; details: Staphylococcus aureus, X400
Experimental: as §1

Streptococcus Group 9960 = test: MIC, standard agar-dilution assay (Table V); type: cell-based; details: GROUP9960; Streptococcus Group 9960; agar dilution; read-out: MIC
Experimental: as §1

[4] = test system: Streptococcus Group D X66; test: MIC, standard agar-dilution assay (Table V); type: cell-based
Experimental: as §1

[5] = test system: Streptococcus pneumoniae Park I; test: microbe, parasite or virus in culture; type: cell-based; details: Streptococcus pneumoniae; read-out: MIC
Experimental: as §1

[6] = test system: Citrobacter freundii CF17; test: MIC, standard agar-dilution assay (Table VI); type: cell-based; details: C. freundii CF17, agar dilution, read-out: MIC
Experimental: as §1

[7] = test system: Enterobacter aerogenes C32; test: MIC, standard agar-dilution assay (Table VI); type: cell-based; details: Klebsiella aerogenes, C32
Experimental: as §1

[8] = test system: Enterobacter aerogenes EB17; test: MIC, standard agar-dilution assay (Table VI); type: cell-based; details: Klebsiella aerogenes, EB17
Experimental: as §1

Enterobacter cloacae EB5 = test: MIC, standard agar-dilution assay (Table VI); type: cell-based; details: E. cloacae EB5, agar dilution, read-out: MIC
Experimental: as §1

[9] = test system: Klebsiella pneumoniae X68; test: MIC, standard agar-dilution assay (Table VI); type: cell-based; details: X68
Experimental: as §1

Proteus inconstans PR33 = test: MIC, standard agar-dilution assay (Table VI); type: cell-based; details: Providencia alcalifaciens; P. inconstans PR33; agar dilution; read-out: MIC
Experimental: as §1

Proteus morganii PR15 = test: MIC, standard agar-dilution assay (Table VI); type: cell-based; details: Morganella morganii, PR15
Experimental: as §1

Proteus rettgeri C24 = test: MIC, standard agar-dilution assay (Table VI); type: cell-based; details: Providencia rettgeri, P. rettgeri C24
Experimental: as §1

Proteus rettgeri PR7 = test: MIC, standard agar-dilution assay (Table VI); type: cell-based; details: Providencia rettgeri; P. rettgeri PR7; agar dilution; read-out: MIC
Experimental: as §1

[10] = test system: Pseudomonas aeruginosa Ps18; test: MIC, standard agar-dilution assay (Table VI); type: cell-based; details: P. aeruginosa Ps18, agar dilution, read-out: MIC
Experimental: as §1

[11] = test system: Pseudomonas aeruginosa X239; test: MIC, standard agar-dilution assay (Table VI); type: cell-based; details: X239
Experimental: as §1

[12] = test system: Pseudomonas aeruginosa X528; test: MIC, standard agar-dilution assay (Table VI); type: cell-based; details: P. aeruginosa X528, agar dilution, read-out: MIC
Experimental: as §1

[13] = test system: Salmonella heidelberg X514; test: MIC, standard agar-dilution assay (Table VI); type: cell-based; details: Salmonella enterica, X514
Experimental: as §1

Salmonella typhi 1335 = test: MIC, standard agar-dilution assay (Table VI); type: cell-based; details: Salmonella enterica
Experimental: as §1

Serratia marcescens SE3 = test: MIC, standard agar-dilution assay (Table VI); type: cell-based; details: S. marcescens SE3, agar dilution, read-out: MIC
Experimental: as §1

Serratia marcescens X99 = test: MIC, standard agar-dilution assay (Table VI); type: cell-based; details: X99
Experimental: as §1

Mycoplasma gallisepticum = test: MIC, broth-dilution microtiter test (Table VII); type: cell-based; details: Mycoplasmoides gallisepticum; M. gallisepticum; broth-dilution microtiter; read-out: MIC
Experimental: as §1

Mycoplasma hyorhinis = test: MIC, broth-dilution microtiter test (Table VII); type: cell-based; details: M. hyorhinis; broth-dilution microtiter; read-out: MIC
Experimental: as §1

Mycoplasma synoviae = test: MIC, broth-dilution microtiter test (Table VII); type: cell-based; details: Mycoplasmopsis synoviae; M. synoviae; broth-dilution microtiter; read-out: MIC
Experimental: as §1

[14] = test system: Pasteurella hemolytica 22C; test: MIC, broth-dilution microtiter test (Table VII); type: cell-based; details: Pasteurella, P. hemolytica 22C, read-out: MIC
Summary of the method: (§2)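 Broth microdilution, run as a conventional microtiter test, supplied MICs for the gram-positive S. aureus and the Pasteurella isolates. Enterobacter data instead rest on a standard agar-dilution procedure.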

[15] = test system: Pasteurella hemolytica 23C; test: MIC, broth-dilution microtiter test (Table VII); type: cell-based; details: Pasteurella, P. hemolytica 23C, read-out: MIC
Summary of the method: as §2

[16] = test system: Pasteurella hemolytica 41D; test: MIC, broth-dilution microtiter test (Table VII); type: cell-based; details: Pasteurella, P. hemolytica 41D, read-out: MIC
Summary of the method: as §2

[17] = test system: Pasteurella multocida 17E; test: MIC, broth-dilution microtiter test (Table VII); type: cell-based; details: Pasteurella multocida; P. multocida 17E, bovine isolate; broth-dilution microtiter; read-out: MIC
Summary of the method: (§3)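 Serial compound dilutions were incorporated into agar for testing E. aerogenes. Dilutions in broth, arranged in microtiter wells, were used for S. aureus and P. multocida.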

[18] = test system: Pasteurella multocida 22A; test: MIC, broth-dilution microtiter test (Table VII); type: cell-based; details: Pasteurella multocida; P. multocida 22A; broth-dilution microtiter; read-out: MIC
Summary of the method: as §3

[19] = test system: Pasteurella multocida 40G; test: MIC, broth-dilution microtiter test (Table VII); type: cell-based; details: Pasteurella multocida; P. multocida 40G; broth-dilution microtiter; read-out: MIC
Summary of the method: as §3

[20] = test system: Pasteurella multocida 60A; test: MIC, broth-dilution microtiter test (Table VII); type: cell-based; details: Pasteurella multocida; P. multocida 60A, avian isolate; broth-dilution microtiter; read-out: MIC
Summary of the method: as §3

[21] = test system: Pasteurella multocida 68C; test: MIC, broth-dilution microtiter test (Table VII); type: cell-based; details: Pasteurella multocida; P. multocida 68C; broth-dilution microtiter; read-out: MIC
Summary of the method: as §3

Staphylococcus aureus = test: MIC, broth-dilution microtiter test (Table VII); type: cell-based; details: Staphylococcus aureus; S. aureus; broth-dilution microtiter; read-out: MIC
Summary of the method: as §3

Streptococcus sp. 80 = test: MIC, broth-dilution microtiter test (Table VII); type: cell-based; details: Streptococcus sp. 80; broth-dilution microtiter; read-out: MIC
Experimental: as §1

[22] = test system: Streptococcus pyogenes C203; test: ED50 in mice experimentally infected with S. pyogenes C203 (Table VIII); type: in vivo
Experimental: The C-23 modified derivatives of OMT of this invention have shown in vivo antimicrobial activity against experimental infections. When two doses of test compound were administered to mice experimentally infected with a gram-positive bacterium, S. pyogenes C203, the activity observed was measured as an ED50 value [effective dose in mg/kg to protect 50% of the test animals: see Warren Wick, et al., J. Bacteriol. 81, 233-235 (1961)].

**Q.** Which results are given for CCC1OC(=O)CC(O)C(C)C(OC2OC(C)C(O)C(N(C)C)C2O)C(CC=O)CC(C)C(=O)C=CC(C)=CC1CN=[N+]=[N-] (stereo not shown) [Compound 8, 23-Deoxy-23-azido-OMT]?
**A.** MIC [1]: 0.25 mg/L (≈ 0.401 µM); MIC [2]: 0.125 mg/L (≈ 0.201 µM); MIC [3]: 0.25 mg/L (≈ 0.401 µM); MIC (Streptococcus Group 9960): 0.5 mg/L (≈ 0.803 µM); MIC [4]: 0.25 mg/L (≈ 0.401 µM); MIC [5]: 0.06 mg/L (≈ 0.0963 µM); MIC [6]: > 128 mg/L; MIC [7]: 64 mg/L (≈ 103 µM); MIC [8]: 64 mg/L (≈ 103 µM); MIC (Enterobacter cloacae EB5): > 128 mg/L; MIC [9]: 64 mg/L (≈ 103 µM); MIC (Proteus inconstans PR33): > 128 mg/L; MIC (Proteus morganii PR15): 64 mg/L (≈ 103 µM); MIC (Proteus rettgeri C24): 32 mg/L (≈ 51.4 µM); MIC (Proteus rettgeri PR7): 32 mg/L (≈ 51.4 µM); MIC [10]: 32 mg/L (≈ 51.4 µM); MIC [11]: 64 mg/L (≈ 103 µM); MIC [12]: 16 mg/L (≈ 25.7 µM); MIC [13]: 64 mg/L (≈ 103 µM); MIC (Salmonella typhi 1335): 64 mg/L (≈ 103 µM); MIC (Serratia marcescens SE3): > 128 mg/L; MIC (Serratia marcescens X99): 64 mg/L (≈ 103 µM); MIC (Mycoplasma gallisepticum): 0.39 mg/L (≈ 0.626 µM); MIC (Mycoplasma hyorhinis): 3.12 mg/L (≈ 5.01 µM); MIC (Mycoplasma synoviae): 0.39 mg/L (≈ 0.626 µM); MIC [14]: 6.25 mg/L (≈ 10 µM); MIC [15]: 6.25 mg/L (≈ 10 µM); MIC [16]: 6.25 mg/L (≈ 10 µM); MIC [17]: 1.56 mg/L (≈ 2.5 µM); MIC [18]: 1.56 mg/L (≈ 2.5 µM); MIC [19]: 1.56 mg/L (≈ 2.5 µM); MIC [20]: 3.12 mg/L (≈ 5.01 µM); MIC [21]: 1.56 mg/L (≈ 2.5 µM); MIC (Staphylococcus aureus): ≤ 0.78 mg/L; MIC (Streptococcus sp. 80): ≤ 0.78 mg/L; ED50 ([22]; C203, po, read-out: ED50, Oral): > 100 mg/kg; ED50 ([22]; C203, sc, mice, subcutaneous, doses given 1 and 4 hours postinfection, read-out: ED50, Subcutaneous): 6.3 mg/kg
